We go through two molecules from ChEMBL document CHEMBL3886358, “Quinolyl-containing hydroxamic acid compound and preparation method thereof, and pharmaceutical composition containing this compound and use thereof” (2015).

For test [1], the target named is T1, Histone deacetylase 7 (Homo sapiens, UniProt Q8WUI4).
T1 sequence (Q8WUI4 whole entry): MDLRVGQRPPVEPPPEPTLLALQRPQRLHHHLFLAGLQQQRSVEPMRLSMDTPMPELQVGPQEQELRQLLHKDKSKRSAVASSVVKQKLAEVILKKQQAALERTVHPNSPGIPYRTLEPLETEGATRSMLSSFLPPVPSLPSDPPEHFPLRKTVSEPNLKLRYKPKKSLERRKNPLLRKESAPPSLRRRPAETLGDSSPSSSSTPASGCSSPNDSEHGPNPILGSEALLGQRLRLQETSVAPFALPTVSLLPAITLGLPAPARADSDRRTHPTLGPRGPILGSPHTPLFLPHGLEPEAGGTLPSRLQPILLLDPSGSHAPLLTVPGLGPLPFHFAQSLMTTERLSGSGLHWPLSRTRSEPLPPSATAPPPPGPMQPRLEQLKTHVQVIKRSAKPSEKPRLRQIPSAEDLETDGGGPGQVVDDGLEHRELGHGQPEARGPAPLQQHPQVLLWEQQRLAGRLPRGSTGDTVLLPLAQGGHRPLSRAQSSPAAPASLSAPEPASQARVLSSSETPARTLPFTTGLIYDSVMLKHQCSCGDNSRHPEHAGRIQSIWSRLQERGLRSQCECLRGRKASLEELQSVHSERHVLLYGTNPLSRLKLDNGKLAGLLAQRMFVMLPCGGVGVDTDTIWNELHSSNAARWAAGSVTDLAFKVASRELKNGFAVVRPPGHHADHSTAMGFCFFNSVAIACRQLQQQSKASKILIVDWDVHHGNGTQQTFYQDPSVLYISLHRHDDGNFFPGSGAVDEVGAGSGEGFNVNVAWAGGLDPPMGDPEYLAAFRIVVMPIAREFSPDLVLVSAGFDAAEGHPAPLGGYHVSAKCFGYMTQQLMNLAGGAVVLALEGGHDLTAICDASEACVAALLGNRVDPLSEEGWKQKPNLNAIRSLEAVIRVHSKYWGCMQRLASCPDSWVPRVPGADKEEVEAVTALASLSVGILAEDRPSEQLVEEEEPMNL
Kind of test: (§1) Inhibition Assay: The inhibitions of activities of HDAC enzymes by the compounds N1'-[3-fluoro-4-[[7-[4-(hydroxyamino)-4-oxobutoxy]-6-methoxy-4-quinolyl]oxy]phenyl]-N1-(4-fluoro phenyl)cyclopropane-1,1-dicarboxamide prepared in Example 9 and N1'-[3-fluoro-4-[[7-[6-(hydroxyamino)-6-oxohexyloxy]-6-methoxy-4-quinolyl]oxy]phenyl]-N1-(4-fluo rophenyl)cyclopropane-1,1-dicarboxamide prepared in Example 13 were measured by Reaction Biology Corporation (Reaction Biology Corp., One Great Valley Parkway, Suite 2, Malvern, PA 19355, USA . http://www.reactionbiology.com/pages/hdac.htm). The HDAC enzymes tested include the following 11 HDAC isoforms: HDAC1, HDAC2, HDAC3, HDAC4, HDAC5, HDAC6, HDAC7, HDAC8, HDAC9, HDAC10 and HDAC11.Specific steps were as follows: The compound of the present invention was dissolved in dimethyl sulfoxide (DMSO) to make a stock solution of 10 mM. The stock solution was diluted in 4-fold series starting from 10 mM to prepare 10 different dosages.

For test [2], the target named is Histone deacetylase 9 (Homo sapiens, UniProt Q9UKV0). Described as §1.
Histone deacetylase 9, sequence (Q9UKV0 whole entry): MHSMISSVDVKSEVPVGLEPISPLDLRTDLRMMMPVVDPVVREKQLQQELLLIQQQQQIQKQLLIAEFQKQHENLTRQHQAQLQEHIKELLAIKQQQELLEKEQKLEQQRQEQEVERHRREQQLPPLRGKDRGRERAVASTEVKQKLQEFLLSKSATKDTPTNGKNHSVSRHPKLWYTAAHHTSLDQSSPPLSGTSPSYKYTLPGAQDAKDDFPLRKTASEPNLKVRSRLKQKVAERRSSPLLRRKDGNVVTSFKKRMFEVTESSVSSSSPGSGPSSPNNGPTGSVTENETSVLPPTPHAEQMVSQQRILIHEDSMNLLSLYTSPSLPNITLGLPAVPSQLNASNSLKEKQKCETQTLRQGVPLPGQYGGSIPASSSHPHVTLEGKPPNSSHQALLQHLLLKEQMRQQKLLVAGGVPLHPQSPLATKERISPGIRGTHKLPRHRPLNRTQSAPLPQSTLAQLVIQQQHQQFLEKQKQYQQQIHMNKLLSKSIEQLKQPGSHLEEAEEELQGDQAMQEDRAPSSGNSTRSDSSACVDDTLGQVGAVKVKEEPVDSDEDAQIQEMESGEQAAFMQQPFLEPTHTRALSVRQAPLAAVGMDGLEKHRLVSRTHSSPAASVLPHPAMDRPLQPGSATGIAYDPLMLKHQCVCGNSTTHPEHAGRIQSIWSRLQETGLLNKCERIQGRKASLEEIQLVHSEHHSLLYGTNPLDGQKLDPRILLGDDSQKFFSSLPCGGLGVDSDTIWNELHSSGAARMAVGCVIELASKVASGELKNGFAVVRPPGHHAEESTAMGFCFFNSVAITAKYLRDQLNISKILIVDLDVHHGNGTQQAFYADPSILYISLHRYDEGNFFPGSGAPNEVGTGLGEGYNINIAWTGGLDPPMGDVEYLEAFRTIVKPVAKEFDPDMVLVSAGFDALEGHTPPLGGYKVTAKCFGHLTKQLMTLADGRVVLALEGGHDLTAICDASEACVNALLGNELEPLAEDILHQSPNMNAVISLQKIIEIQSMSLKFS
The target of test [3] is T2, Polyamine deacetylase HDAC10 (Homo sapiens, UniProt Q969S8).
T2 sequence (Q969S8 whole entry): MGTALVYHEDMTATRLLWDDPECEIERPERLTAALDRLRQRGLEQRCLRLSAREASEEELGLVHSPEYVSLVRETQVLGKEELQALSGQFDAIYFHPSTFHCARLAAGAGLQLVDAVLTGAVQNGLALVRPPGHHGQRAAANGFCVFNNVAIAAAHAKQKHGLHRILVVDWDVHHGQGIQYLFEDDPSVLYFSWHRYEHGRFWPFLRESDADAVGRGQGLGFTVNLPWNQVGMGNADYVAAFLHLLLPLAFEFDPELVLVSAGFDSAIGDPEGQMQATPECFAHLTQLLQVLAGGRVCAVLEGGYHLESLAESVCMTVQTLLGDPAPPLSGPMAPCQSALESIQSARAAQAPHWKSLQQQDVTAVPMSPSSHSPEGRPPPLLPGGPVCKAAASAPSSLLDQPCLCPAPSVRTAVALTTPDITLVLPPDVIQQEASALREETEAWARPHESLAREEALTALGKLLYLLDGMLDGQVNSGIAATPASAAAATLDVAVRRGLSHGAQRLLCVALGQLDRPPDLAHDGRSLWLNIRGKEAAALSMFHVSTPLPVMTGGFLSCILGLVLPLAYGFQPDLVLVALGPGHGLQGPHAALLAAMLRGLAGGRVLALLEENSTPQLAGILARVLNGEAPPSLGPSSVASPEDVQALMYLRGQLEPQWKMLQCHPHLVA
Described as §1.

Test [4] has as its target Hepatocyte growth factor receptor (Homo sapiens, UniProt P08581). Kind of test: (§2) Sci. USA 1988, 85(23), 9312). Specific steps were as follows: The compound of the present invention was dissolved in dimethyl sulfoxide (DMSO) to make a stock solution of 2 mM, then the stock solution was diluted with DMSO following a 7 half-log series to concentrations ranging from 2 uM to 600 pM. The test is classed as cell-based.

The target in test [5] is Proto-oncogene tyrosine-protein kinase receptor Ret (Homo sapiens, UniProt P07949). Described as §2. The test is classed as cell-based.
Proto-oncogene tyrosine-protein kinase receptor Ret, sequence (P07949 whole entry): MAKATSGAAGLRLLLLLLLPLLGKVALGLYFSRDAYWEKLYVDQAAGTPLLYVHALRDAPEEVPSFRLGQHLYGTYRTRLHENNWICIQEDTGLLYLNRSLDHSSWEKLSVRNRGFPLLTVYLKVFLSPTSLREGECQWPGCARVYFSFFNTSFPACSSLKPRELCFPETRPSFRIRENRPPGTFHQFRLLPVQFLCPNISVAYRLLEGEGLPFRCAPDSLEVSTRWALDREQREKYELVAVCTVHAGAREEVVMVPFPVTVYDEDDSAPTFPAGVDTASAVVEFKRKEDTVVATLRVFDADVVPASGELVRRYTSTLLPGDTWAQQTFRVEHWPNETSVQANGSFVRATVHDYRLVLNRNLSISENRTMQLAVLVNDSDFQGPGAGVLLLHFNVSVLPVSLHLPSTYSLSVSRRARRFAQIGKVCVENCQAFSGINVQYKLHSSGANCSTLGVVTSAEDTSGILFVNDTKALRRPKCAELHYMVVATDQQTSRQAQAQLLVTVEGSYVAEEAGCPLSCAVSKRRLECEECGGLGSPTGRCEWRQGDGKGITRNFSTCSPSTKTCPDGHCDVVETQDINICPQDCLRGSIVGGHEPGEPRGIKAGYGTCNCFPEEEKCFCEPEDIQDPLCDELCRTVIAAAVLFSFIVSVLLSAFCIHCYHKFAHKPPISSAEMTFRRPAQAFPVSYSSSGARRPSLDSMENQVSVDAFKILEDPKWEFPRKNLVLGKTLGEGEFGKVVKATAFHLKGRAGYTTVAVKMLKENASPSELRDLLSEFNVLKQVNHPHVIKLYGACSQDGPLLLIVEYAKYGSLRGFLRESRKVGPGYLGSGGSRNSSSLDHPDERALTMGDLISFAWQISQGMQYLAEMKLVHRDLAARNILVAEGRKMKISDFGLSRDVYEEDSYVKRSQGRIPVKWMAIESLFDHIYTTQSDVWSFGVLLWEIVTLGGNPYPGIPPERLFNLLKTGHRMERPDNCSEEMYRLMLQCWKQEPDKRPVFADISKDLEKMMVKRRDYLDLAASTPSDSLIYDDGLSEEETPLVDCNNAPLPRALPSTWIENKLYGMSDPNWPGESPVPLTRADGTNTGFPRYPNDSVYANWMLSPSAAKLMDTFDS
Test [6] deals with T3, Receptor-type tyrosine-protein kinase FLT3 (Homo sapiens, UniProt P36888).
T3 sequence (P36888 whole entry): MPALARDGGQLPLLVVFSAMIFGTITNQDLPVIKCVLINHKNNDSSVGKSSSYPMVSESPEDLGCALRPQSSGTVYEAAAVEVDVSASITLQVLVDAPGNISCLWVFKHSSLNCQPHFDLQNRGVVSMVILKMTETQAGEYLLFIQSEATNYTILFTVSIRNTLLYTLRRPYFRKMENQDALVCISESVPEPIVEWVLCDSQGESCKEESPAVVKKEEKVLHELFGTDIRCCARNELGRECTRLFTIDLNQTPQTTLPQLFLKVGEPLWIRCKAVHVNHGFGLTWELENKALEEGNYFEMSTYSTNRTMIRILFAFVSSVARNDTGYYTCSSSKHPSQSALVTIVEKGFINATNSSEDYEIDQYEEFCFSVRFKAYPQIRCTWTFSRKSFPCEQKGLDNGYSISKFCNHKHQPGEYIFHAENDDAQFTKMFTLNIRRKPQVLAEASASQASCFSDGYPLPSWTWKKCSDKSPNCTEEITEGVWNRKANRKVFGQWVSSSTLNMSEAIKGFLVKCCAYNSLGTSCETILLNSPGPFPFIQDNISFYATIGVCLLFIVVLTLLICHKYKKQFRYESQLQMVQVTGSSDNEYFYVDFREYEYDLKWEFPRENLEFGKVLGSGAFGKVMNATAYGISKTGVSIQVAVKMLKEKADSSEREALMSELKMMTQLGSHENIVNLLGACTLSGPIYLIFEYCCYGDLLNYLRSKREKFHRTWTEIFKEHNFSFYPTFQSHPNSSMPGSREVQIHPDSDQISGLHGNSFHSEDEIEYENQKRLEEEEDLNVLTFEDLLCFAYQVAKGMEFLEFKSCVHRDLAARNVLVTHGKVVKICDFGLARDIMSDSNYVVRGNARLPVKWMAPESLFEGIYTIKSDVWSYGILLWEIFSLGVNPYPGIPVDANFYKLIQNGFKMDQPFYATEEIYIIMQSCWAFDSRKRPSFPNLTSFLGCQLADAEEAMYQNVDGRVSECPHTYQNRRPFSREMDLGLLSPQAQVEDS
Described as §2. The test is classed as cell-based.

The structures appear in SMILES notation. Some results are limits rather than exact numbers.

The term IC50 denotes the concentration needed to halve the response being measured.

Hepatocyte growth factor receptor, sequence (P08581 whole entry): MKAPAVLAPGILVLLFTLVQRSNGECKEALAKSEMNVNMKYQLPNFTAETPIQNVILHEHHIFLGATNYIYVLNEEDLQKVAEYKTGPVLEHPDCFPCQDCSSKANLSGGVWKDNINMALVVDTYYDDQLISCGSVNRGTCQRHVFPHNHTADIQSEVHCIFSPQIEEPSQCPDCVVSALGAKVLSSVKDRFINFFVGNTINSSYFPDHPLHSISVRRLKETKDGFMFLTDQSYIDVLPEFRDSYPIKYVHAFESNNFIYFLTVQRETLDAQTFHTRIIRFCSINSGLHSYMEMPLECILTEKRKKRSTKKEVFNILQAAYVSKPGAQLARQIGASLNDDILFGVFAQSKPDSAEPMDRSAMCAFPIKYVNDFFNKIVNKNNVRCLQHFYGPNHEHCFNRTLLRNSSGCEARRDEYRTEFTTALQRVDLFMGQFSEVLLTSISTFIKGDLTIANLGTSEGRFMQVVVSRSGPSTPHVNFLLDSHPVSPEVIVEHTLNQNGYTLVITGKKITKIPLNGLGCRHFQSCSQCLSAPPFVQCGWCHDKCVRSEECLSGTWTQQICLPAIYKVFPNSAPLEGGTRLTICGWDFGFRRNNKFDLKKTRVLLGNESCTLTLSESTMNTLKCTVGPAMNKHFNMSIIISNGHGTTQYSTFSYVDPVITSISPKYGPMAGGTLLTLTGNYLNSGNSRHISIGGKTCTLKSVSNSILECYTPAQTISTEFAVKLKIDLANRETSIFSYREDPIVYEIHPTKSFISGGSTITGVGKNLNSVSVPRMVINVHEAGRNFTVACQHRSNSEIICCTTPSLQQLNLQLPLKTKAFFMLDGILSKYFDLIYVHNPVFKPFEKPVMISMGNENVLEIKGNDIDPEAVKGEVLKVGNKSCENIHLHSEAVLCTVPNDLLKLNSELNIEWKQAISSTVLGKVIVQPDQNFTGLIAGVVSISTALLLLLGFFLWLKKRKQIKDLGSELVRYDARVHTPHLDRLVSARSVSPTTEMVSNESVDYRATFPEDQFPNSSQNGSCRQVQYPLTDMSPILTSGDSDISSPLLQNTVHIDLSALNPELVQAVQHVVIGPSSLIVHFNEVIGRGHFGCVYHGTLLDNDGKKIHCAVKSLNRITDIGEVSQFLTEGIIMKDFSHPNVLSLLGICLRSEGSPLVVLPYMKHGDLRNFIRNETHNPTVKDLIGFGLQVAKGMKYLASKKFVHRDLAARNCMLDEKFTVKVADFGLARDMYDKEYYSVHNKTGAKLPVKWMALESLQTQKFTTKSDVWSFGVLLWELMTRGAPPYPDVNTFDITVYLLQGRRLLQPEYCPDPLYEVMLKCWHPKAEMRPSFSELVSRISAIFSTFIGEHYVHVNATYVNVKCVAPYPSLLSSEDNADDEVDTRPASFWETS

Turning to `COc1cc2c(Oc3ccc(NC(=O)C4(C(=O)Nc5ccc(F)cc5)CC4)cc3F)ccnc2cc1OCCCCCC(=O)NO`, the concentration for half-maximal inhibition (IC50) in test [1] is over 10 µM; in test [2], over 10 µM; in test [3], 11.9 µM.

`COc1cc2c(Oc3ccc(NC(=O)C4(C(=O)Nc5ccc(F)cc5)CC4)cc3F)ccnc2cc1OCCCC(=O)NO`: the half-maximal inhibitory concentration (IC50) in test [4] is 0.119 µM; in test [5] it was 0.154 µM; in test [6], 0.031 µM; in test [1], over 10 µM; in test [2], over 10 µM; in test [3], over 10 µM.
